In experiment [1] the target is T1, Steroid 17-alpha-hydroxylase/17,20 lyase (Homo sapiens, UniProt P05093).
T1 sequence (P05093 whole entry): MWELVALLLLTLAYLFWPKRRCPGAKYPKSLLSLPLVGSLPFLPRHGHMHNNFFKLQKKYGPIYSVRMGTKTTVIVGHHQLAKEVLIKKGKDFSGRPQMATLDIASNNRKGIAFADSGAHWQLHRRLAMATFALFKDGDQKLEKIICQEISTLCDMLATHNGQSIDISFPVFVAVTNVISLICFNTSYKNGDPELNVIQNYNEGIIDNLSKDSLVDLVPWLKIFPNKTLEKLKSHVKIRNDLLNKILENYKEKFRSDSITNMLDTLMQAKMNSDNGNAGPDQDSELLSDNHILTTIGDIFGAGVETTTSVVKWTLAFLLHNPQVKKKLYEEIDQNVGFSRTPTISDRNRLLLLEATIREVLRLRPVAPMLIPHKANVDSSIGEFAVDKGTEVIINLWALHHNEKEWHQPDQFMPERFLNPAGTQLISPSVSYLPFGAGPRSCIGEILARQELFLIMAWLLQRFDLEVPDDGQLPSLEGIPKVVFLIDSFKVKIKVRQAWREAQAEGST
Kind of experiment: Irreversible inhibition of human cytochrome P450 17alpha.

Experiment [2] addresses T2, Adenosine deaminase (Bos taurus, UniProt P56658).
T2 sequence (P56658 whole entry): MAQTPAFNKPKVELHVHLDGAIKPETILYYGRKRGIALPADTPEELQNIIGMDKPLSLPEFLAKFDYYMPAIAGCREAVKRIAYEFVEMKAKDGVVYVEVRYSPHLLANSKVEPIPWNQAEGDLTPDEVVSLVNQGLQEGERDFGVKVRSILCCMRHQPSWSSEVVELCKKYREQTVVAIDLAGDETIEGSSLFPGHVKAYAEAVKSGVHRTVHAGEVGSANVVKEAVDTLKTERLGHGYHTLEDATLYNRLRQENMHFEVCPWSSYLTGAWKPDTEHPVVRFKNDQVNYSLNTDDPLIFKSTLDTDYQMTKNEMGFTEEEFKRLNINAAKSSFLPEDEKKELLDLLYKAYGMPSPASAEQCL
Kind of experiment: Inhibition of calf duodenum adenosine deaminase.

Experiment [3] addresses Neuronal acetylcholine receptor; alpha4/beta2 (Homo sapiens, UniProt P17787+P43681). Kind of experiment: Inhibition of alpha4beta2 nAChR (unknown origin). Type of experiment: protein-complex assay.
For experiment [4], the target named is T1, Steroid 17-alpha-hydroxylase/17,20 lyase. Kind of experiment: Reversible inhibition of human cytochrome P450 17alpha.

One may read the IC50 as the midpoint of a concentration-inhibition curve. A high value points to weaker potency in that assay. The term Ki denotes a measure of affinity in units of concentration, obtained from inhibition or displacement.

Sequence of Neuronal acetylcholine receptor; alpha4/beta2 (P17787 whole entry): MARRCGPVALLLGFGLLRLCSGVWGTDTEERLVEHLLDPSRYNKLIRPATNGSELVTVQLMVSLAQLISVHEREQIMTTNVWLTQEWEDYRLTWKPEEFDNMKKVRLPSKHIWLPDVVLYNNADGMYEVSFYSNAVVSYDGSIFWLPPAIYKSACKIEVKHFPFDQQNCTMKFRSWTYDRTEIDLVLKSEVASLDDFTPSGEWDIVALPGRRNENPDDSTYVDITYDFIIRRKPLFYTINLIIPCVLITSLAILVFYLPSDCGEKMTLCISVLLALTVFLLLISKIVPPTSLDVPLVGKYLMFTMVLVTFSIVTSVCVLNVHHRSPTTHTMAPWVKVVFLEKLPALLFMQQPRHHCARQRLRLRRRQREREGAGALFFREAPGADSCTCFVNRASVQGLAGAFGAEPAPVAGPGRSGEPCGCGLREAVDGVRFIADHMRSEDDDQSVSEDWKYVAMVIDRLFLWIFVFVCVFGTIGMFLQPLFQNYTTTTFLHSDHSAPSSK
Sequence of Neuronal acetylcholine receptor; alpha4/beta2 (P43681 whole entry): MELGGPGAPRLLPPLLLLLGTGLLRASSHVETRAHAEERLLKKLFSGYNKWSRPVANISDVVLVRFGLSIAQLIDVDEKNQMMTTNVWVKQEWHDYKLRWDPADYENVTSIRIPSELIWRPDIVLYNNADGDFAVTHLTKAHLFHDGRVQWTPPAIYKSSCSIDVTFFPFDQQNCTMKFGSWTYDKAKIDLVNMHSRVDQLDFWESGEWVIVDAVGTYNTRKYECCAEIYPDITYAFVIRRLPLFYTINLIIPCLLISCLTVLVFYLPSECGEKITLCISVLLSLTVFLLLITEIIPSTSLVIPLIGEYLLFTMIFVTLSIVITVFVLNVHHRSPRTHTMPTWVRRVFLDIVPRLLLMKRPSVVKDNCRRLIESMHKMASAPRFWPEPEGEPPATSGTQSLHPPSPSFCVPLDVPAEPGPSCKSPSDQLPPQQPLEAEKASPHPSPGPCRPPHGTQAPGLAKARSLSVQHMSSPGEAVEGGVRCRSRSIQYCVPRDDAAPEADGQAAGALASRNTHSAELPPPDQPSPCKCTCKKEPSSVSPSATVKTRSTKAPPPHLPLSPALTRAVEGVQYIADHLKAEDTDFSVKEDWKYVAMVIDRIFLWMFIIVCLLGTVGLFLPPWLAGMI

Turning to `C[C@]12CC[C@H](O)CC1=CC[C@@H]1[C@@H]2CC[C@]2(C)C(c3cccnc3)=CC[C@@H]12` [ABIRATERONE], the half-maximal inhibitory concentration (IC50) in experiment [1] turned out to be 5 nM.
On to `OCC1NC=Nc2c1ncn2[C@@H]1O[C@H](CO)[C@@H](O)[C@H]1O` (single isomer, unassigned; diastereomer 2), for which the affinity in experiment [2] corresponds to a Ki of 12500 nM.
As for `Clc1cc2c(cn1)C1CNCC(C2)C1` (racemic), the Ki in experiment [3] stood at 0.5 nM.
The compound `OCc1ncnc2c1ncn2[C@@H]1O[C@H](CO)[C@@H](O)[C@H]1O` registered a Ki in experiment [2] of 9400 nM.
The compound `C[C@]12CC[C@H]3[C@@H](CC=C4C[C@@H](O)CC[C@@]43C)[C@@H]1CC[C@H]2c1ccncc1` yielded an IC50 in experiment [4] of 27 nM.
Compound `Clc1ccc2c(n1)CC1CNCC2C1` (racemic) returned a Ki in experiment [3] of 3.5 nM.
Regarding `OC[C@H]1O[C@@H](n2cnc3cncnc32)[C@H](O)[C@@H]1O` [NEBULARINE], in experiment [2], the affinity corresponds to a Ki of 9300 nM.
Still for that read-out and setting: in the case of `OCC1NC=Nc2c1ncn2[C@@H]1O[C@H](CO)[C@@H](O)[C@H]1O` (single isomer, unassigned; diastereomer 1) it was 760 nM.
